Results reported in PMC10673563, “In Vitro and In Vivo Biological Evaluation of Indole-thiazolidine-2,4-dione Derivatives as Tyrosinase Inhibitors” (Molecules, 2023).
Each block holds one molecule with its values, some of them ahead of it.

Columns and labels:
Mushroom tyrosinase = target: T1, Mushroom tyrosinase (Agaricus bisporus, UniProt C7FF04); test: Tyrosinase inhibitory activity assay (L-DOPA, absorbance 475 nm); type: biochemical; settings: for inhibition at 32 µM: initial concentration of 32 μM
T1 construct: purchased Sigma-Aldrich (Shanghai, China)
Procedure: The tyrosinase inhibitory activities of compounds 5a~5z were determined according to previous reports. In brief, 10 μL of compound was added into 140 μL of tyrosinase, incubated for 5 min at room temperature. Then, 50 μL of L-DOPA was added, followed by the measurement of absorbance change at 475 nm. The inhibition rate at different concentrations was calculated and compared to the blank control.

tyrosinase [1] = target: T2, tyrosinase (Agaricus bisporus, UniProt C7FF04); test: Three-dimensional fluorescence spectra; set-up: species or system mushroom; settings: 5w 8.5 μM
T2 construct: purchased Sigma-Aldrich (Shanghai, China)
Procedure: Three-dimensional fluorescence spectra were employed to monitor the effects of compound 5w on the conformation and microenvironment changes in tyrosinase. In the 3D fluorescence spectra of tyrosinase (Figure 5A), two characteristic peaks 1 and 2 appeared, which corresponded to Tyr and Trp residues and polypeptide strand transition, respectively.
Based on a previous report, the 3D fluorescence spectra of tyrosinase (0.17 mg/mL) and tyrosinase–compound 5w mixture were measured, respectively, at room temperature. The test wavelengths were 200–400 nm.
Target sequence in this assay (C7FF04 1-392 limits assumed): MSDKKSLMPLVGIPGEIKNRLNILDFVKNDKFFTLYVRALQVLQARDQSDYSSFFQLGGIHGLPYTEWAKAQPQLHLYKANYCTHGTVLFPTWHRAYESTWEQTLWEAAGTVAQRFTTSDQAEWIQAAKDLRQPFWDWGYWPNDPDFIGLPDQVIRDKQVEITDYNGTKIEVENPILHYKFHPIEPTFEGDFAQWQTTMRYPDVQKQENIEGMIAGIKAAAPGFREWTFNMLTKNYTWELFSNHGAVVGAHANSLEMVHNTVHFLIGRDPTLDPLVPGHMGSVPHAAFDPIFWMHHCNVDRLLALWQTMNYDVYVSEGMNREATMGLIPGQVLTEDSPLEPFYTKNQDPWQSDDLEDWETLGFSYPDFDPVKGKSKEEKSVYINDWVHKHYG

B16F10 cells = test: Cell cytotoxicity (MTT); type: cell-based; settings: 4~32 μM, 48 h
Procedure: The effects of compound 5w and kojic acid on the cells’ viability were determined using the MTT method. B16F10 cells (5000 cells/well) were seeded into the 96-well plate for 24 h, followed by the treatment of compound 5w or kojic acid (4~32 μM) for another 48 h. Then, MTT solution (0.5 mg/mL) was added and incubated for 4 h. DMSO (100 μL) was used to dissolve the violet precipitates, and then the mixture was measured for its absorbance at 570 nm.

[2] = system: tyrosinase activity in B16F10 cells; test: Tyrosinase activity in B16F10 cells; type: cell-based; settings: 16 and 32 μM; for cellular tyrosinase activity: 48 h
Procedure: The tyrosinase inhibitory activity of 5w in B16F10 cells was determined. B16F10 cells (1 × 10^5 cells/well) were seeded into the 6-well plate for 24 h and subsequently treated with compound 5w or kojic acid for another 48 h. Then, the harvested cells were suspended into the appropriate amount of Triton X-100 (1%) and frozen for 1 h at −80 °C. After it had thawed, the mixture was centrifuged to collect the supernatant. Then, its protein concentration was determined using a BCA Kit. After 20 μL of L-DOPA (10 mM) was added into 80 μL of protein solution, the absorbance change at 475 nm was measured.

tyrosinase [3] = target: T2, tyrosinase; test: Fluorescence quenching titration (Stern–Volmer); type: binding, mushroom
Procedure: Fluorescence quenching, an effective method for monitoring the binding of a compound to its target protein, was operated to examine the binding of compound 5w with tyrosinase.
For a further understanding of the binding process of compound 5w with tyrosinase, the fluorescence quenching manner was assayed using the Stern–Volmer equation. In the Stern–Volmer plots of compound 5w (Figure 3D), the lines at different temperatures presented a good linear, which illustrated only one quenching manner in their binding process. Although the quenching constant (Ksv) values were slightly proportional to temperature, the quench rate constant (Kq) values at different temperatures were all higher than 2 × 10^10 L mol^−1 S^−1, which is the maximum scattering collision quenching constant (Table 2). […] In addition, the number of binding sites (n) was obtained to be about one, meaning there was only one binding site between compound 5w and tyrosinase (Table 2).
According to a previous report, the fluorescence quenching titration was run. In total, 1 μL of 5w solution was progressively titrated into 2 mL of tyrosinase (0.17 mg/mL), followed by fluorescence spectra determination (λex = 280 nm) at temperatures of 298, 303, and 308 K, respectively. The quenching parameters were obtained using the Stern–Volmer equation.
Target sequence in this assay (C7FF04 1-392 limits assumed): as above

tyrosinase [4] = target: T2, tyrosinase; test: Inhibition kinetics (Lineweaver–Burk plots); type: biochemical, mushroom
Procedure: To understand the inhibition mechanism of this kind of compound on tyrosinase, the inhibition kinetics of the preferable compound 5w were investigated. […] With the increasing concentrations of 5w, the Y-intercept of corresponding lines increased and the X-intercept decreased, meaning the decrease of Vmax and Km.
The kinetics studies of 5w were conducted using the above experimental procedure. The absorbance changes in the mixture containing 5w (0, 4, 8, and 16 μM), tyrosinase (66.7 U/mL), and L-DOPA (2, 4, 6, and 8 mM) were recorded, respectively. The data were analyzed using Lineweaver–Burk plots.
Target sequence in this assay (C7FF04 1-392 limits assumed): as above

[5] = system: melanogenesis in B16F10 cells; test: Melanin content in B16F10 cells; type: cell-based; settings: 16 and 32 μM; for melanogenesis in B16F10 cells: 48 h
Procedure: B16F10 cell treatment was consistent with the above method. The harvested cells were suspended into NaOH (1 M, 200 μL). After boiling for 1 h, the mixture was measured to determine the absorbance change at wavelength of 405 nm.

tyrosinase [6] = target: T2, tyrosinase; test: CD spectra, secondary structure content of tyrosinase; set-up: species or system mushroom
Procedure: CD spectra, one widely used method for determining the secondary structure of protein, were applied to assay the effects of 5w on the conformation change of tyrosinase. The CD spectra of the tyrosinase–compound 5w mixture were monitored and two negative characteristic bands around 210 and 222 nm appeared (Figure 4), which represented typical features of α-helixes.
The CD spectra of tyrosinase (33 μM) and tyrosinase–compound 5w mixture were measured at room temperature, respectively, based on previous reports. The test wavelengths were 195~250 nm.
Target sequence in this assay (C7FF04 1-392): as the sequence (C7FF04 1-392 limits assumed) above

[7] = system: melanogenesis in zebrafish; test: Melanin content in zebrafish (microscope, Image J); type: in vivo; settings: for grayscale values of whole embryos / pigmentation of embryo (eyes, yolk sac, notum): compared to control embryo; for pigmentation of embryo (eyes, yolk sac, notum): embryo photos
Procedure: The embryos treated with compound 5w or kojic acid were observed under a microscope and the melanin content was assayed using Image J software.

[8] = system: tyrosinase activity in zebrafish; test: Tyrosinase activity in zebrafish; type: in vivo; settings: for tyrosinase activity in zebrafish: zebrafish embryos
Procedure: The embryos treated with compound 5w or kojic acid were lysed in PBS, followed by centrifugation to obtain the supernatant. The appropriate amount of supernatant, equal L-DOPA (5 mg/mL), was added and the absorbance at 475 nm was determined.

T1 sequence (C7FF04 1-392): as the sequence (C7FF04 1-392 limits assumed) above

inhibition at 32 µM (Mushroom tyrosinase): 19.3%
SMILES: Cc1ccccc1/C=C1\SC(=O)N(CC(=O)NCCc2c[nH]c3ccccc23)C1=O [5b]

inhibition at 32 µM (Mushroom tyrosinase): 15.1%
SMILES: Cc1ccc(/C=C2\SC(=O)N(CC(=O)NCCc3c[nH]c4ccccc34)C2=O)cc1 [5d]

inhibition at 32 µM (Mushroom tyrosinase): 27.4%
SMILES: O=C(CN1C(=O)S/C(=C\c2ccc(F)cc2)C1=O)NCCc1c[nH]c2ccccc12 [5g]

inhibition at 32 µM (Mushroom tyrosinase): 16.8%
SMILES: O=C(CN1C(=O)S/C(=C\c2ccccc2Cl)C1=O)NCCc1c[nH]c2ccccc12 [5h]

inhibition at 32 µM (Mushroom tyrosinase): 36.6%
SMILES: O=C(CN1C(=O)S/C(=C\c2ccc(Cl)cc2)C1=O)NCCc1c[nH]c2ccccc12 [5j]

inhibition at 32 µM (Mushroom tyrosinase): 31.7%
SMILES: O=C(CN1C(=O)S/C(=C\c2ccccc2Br)C1=O)NCCc1c[nH]c2ccccc12 [5k]

IC50 (Mushroom tyrosinase): 13.3 µM
inhibition at 32 µM (Mushroom tyrosinase): > 70%
SMILES: O=C(CN1C(=O)S/C(=C\c2cccc(Br)c2)C1=O)NCCc1c[nH]c2ccccc12 [5l]

inhibition at 32 µM (Mushroom tyrosinase): 4.5%
SMILES: O=C(CN1C(=O)S/C(=C\c2cccc(C(F)(F)F)c2)C1=O)NCCc1c[nH]c2ccccc12 [5o]

inhibition at 32 µM (Mushroom tyrosinase): 3%
SMILES: O=C(CN1C(=O)S/C(=C\c2ccc(C(F)(F)F)cc2)C1=O)NCCc1c[nH]c2ccccc12 [5p]

inhibition at 32 µM (Mushroom tyrosinase): 1%
SMILES: COc1ccccc1/C=C1\SC(=O)N(CC(=O)NCCc2c[nH]c3ccccc23)C1=O [5q]

inhibition at 32 µM (Mushroom tyrosinase): 2%
SMILES: COc1cccc(/C=C2\SC(=O)N(CC(=O)NCCc3c[nH]c4ccccc34)C2=O)c1 [5r]

Second part, the molecule before the results:

SMILES: O=C(CN1C(=O)S/C(=C\c2ccccc2)C1=O)NCCc1c[nH]c2ccccc12 [5a]
inhibition at 32 µM (Mushroom tyrosinase): 14.2%

SMILES: Cc1cccc(/C=C2\SC(=O)N(CC(=O)NCCc3c[nH]c4ccccc34)C2=O)c1 [5c]
inhibition at 32 µM (Mushroom tyrosinase): 33.2%

SMILES: O=C(CN1C(=O)S/C(=C\c2ccccc2F)C1=O)NCCc1c[nH]c2ccccc12 [5e]
inhibition at 32 µM (Mushroom tyrosinase): 16.5%

SMILES: O=C(CN1C(=O)S/C(=C\c2cccc(F)c2)C1=O)NCCc1c[nH]c2ccccc12 [5f]
inhibition at 32 µM (Mushroom tyrosinase): 32.6%

SMILES: O=C(CN1C(=O)S/C(=C\c2cccc(Cl)c2)C1=O)NCCc1c[nH]c2ccccc12 [5i]
inhibition at 32 µM (Mushroom tyrosinase): 37.6%

SMILES: O=C(CN1C(=O)S/C(=C\c2ccc(Br)cc2)C1=O)NCCc1c[nH]c2ccccc12 [5m]
inhibition at 32 µM (Mushroom tyrosinase): 19.5%

SMILES: O=C(CN1C(=O)S/C(=C\c2ccccc2C(F)(F)F)C1=O)NCCc1c[nH]c2ccccc12 [5n]
inhibition at 32 µM (Mushroom tyrosinase): 3.8%

SMILES: COc1ccc(/C=C2\SC(=O)N(CC(=O)NCCc3c[nH]c4ccccc34)C2=O)cc1 [5s]
inhibition at 32 µM (Mushroom tyrosinase): 1%

SMILES: O=C(CN1C(=O)S/C(=C\c2ccccc2O)C1=O)NCCc1c[nH]c2ccccc12 [5t]
inhibition at 32 µM (Mushroom tyrosinase): 26.9%

SMILES: O=C(CN1C(=O)S/C(=C\c2cccc(O)c2)C1=O)NCCc1c[nH]c2ccccc12 [5u]
inhibition at 32 µM (Mushroom tyrosinase): 36.2%

SMILES: O=C(CN1C(=O)S/C(=C\c2ccc(O)cc2)C1=O)NCCc1c[nH]c2ccccc12 [5v]
inhibition at 32 µM (Mushroom tyrosinase): 24.6%

SMILES: N#Cc1cccc(/C=C2\SC(=O)N(CC(=O)NCCc3c[nH]c4ccccc34)C2=O)c1 [5w]
3D fluorescence characteristic peaks 1 and 2 of tyrosinase (tyrosinase [1]): reduced significantly accompanied by a slight shift
effect on cells' viability (B16F10 cells): obvious effects
cellular anti-tyrosinase activity compared with kojic acid [2]: obvious higher
cellular tyrosinase activity [2]: could inhibit
IC50 (Mushroom tyrosinase): 11.2 µM
inhibition at 32 µM (Mushroom tyrosinase): > 70%
fluorescence quenching process (tyrosinase [3]): static quenching process
KSV (tyrosinase [3]; T 298 K): 3.77 ×10^4 Lmol^−1
Kq (tyrosinase [3]; T 298 K): 3.77 ×10^12 Lmol^−1
n (number of binding sites) (tyrosinase [3]; T 298 K): 0.72
KSV (tyrosinase [3]; T 303 K): 3.84 ×10^4 Lmol^−1
Kq (tyrosinase [3]; T 303 K): 3.84 ×10^12 Lmol^−1
n (number of binding sites) (tyrosinase [3]; T 303 K): 0.74
KSV (tyrosinase [3]; T 308 K): 4.47 ×10^4 Lmol^−1
Kq (tyrosinase [3]; T 308 K): 4.47 ×10^12 Lmol^−1
n (number of binding sites) (tyrosinase [3]; T 308 K): 0.82
quench rate constant (Kq) (tyrosinase [3]; at different temperatures (298, 303, 308 K)): higher than 2 × 10^10 L mol^−1 S^−1
inhibition type (tyrosinase [4]; Lineweaver–Burk plots): mixed-type tyrosinase inhibitor
Ki (tyrosinase [4]; from plots of slope vs. inhibitor concentration, read-out: inhibition constant (Ki)): 11.7 µM
anti-melanogenesis activity compared with kojic acid [5]: obvious higher
melanogenesis in B16F10 cells [5]: could inhibit
Random Coil (%) (tyrosinase [6]; [Enzyme]: [5w] 1: 1): 32.5%
α-Helix (%) (tyrosinase [6]; [Enzyme]: [5w] 1: 1): 8.8%
β-Sheet (%) (tyrosinase [6]; [Enzyme]: [5w] 1: 1): 33.6%
β-Turn (%) (tyrosinase [6]; [Enzyme]: [5w] 1: 1): 19.9%
Random Coil (%) (tyrosinase [6]; [Enzyme]: [5w] 1: 2): 34.5%
α-Helix (%) (tyrosinase [6]; [Enzyme]: [5w] 1: 2): 8.9%
β-Sheet (%) (tyrosinase [6]; [Enzyme]: [5w] 1: 2): 33.1%
β-Turn (%) (tyrosinase [6]; [Enzyme]: [5w] 1: 2): 20.0%
Random Coil (%) (tyrosinase [6]; [Enzyme]: [5w] 1: 3): 35.5%
α-Helix (%) (tyrosinase [6]; [Enzyme]: [5w] 1: 3): 9.0%
β-Sheet (%) (tyrosinase [6]; [Enzyme]: [5w] 1: 3): 32.7%
β-Turn (%) (tyrosinase [6]; [Enzyme]: [5w] 1: 3): 20.1%
decrease in grayscale values compared with kojic acid ([7]; Image J): displayed a higher decrease
grayscale values of whole embryos ([7]; Image J): decrease in grayscale values
pigmentation of embryo (eyes, yolk sac, notum) [7]: pigmentation decrease
anti-tyrosinase activity in zebrafish compared with kojic acid ([8]; concentration of 10 μM): higher anti-tyrosinase activity than kojic acid
tyrosinase activity in zebrafish [8]: could reduce the tyrosinase activity in zebrafish

SMILES: N#Cc1ccc(/C=C2\SC(=O)N(CC(=O)NCCc3c[nH]c4ccccc34)C2=O)cc1 [5x]
inhibition at 32 µM (Mushroom tyrosinase): 24.6%

SMILES: O=C(CN1C(=O)S/C(=C\c2cccc([N+](=O)[O-])c2)C1=O)NCCc1c[nH]c2ccccc12 [5y]
inhibition at 32 µM (Mushroom tyrosinase): 19.8%

SMILES: O=C(CN1C(=O)S/C(=C\c2ccc([N+](=O)[O-])cc2)C1=O)NCCc1c[nH]c2ccccc12 [5z]
inhibition at 32 µM (Mushroom tyrosinase): 19.1%

SMILES: O=c1cc(CO)occ1O [Kojic acid, reference compound]
effect on cells' viability (B16F10 cells): obvious effects
cellular tyrosinase activity [2]: could inhibit
melanogenesis in B16F10 cells [5]: could inhibit
grayscale values of whole embryos ([7]; Image J): decrease in grayscale values
pigmentation of embryo (eyes, yolk sac, notum) [7]: pigmentation decrease
tyrosinase activity in zebrafish [8]: could reduce the tyrosinase activity in zebrafish
